Data on 5 compounds can be found in US8227483B2, “Polymorphs of 6-beta-naltrexol” (Mallinckrodt LLC, priority 2008, dated 2012).

The conditions of series [1]: in vivo; compared with naloxone and naltrexone; cited from earlier work.
Series [2] deals with chronic dependence model. The note with it: cited from earlier work.
Series [3] relates to acute dependence model. The note with it: high doses; cited from earlier work.
The nature of series [4]: slurry experiments (stability of the crystalline forms). Type of series: physicochemical. On the procedure:
Slurry Experiments. The stability of the crystalline forms was analyzed using slurry experiments. A portion of the solvent of interest was saturated with 6-beta-naltrexol base or 6-beta-naltrexol hydrochloride in a small vial. Additional 6-beta-naltrexol base or 6-beta-naltrexol hydrochloride was then added to the vial, and the resulting slurry was stirred using a magnetic stir bar.

Series [5] is described as follows: relative stability of the crystalline forms. The note with it: dihydrate form of Form IIIS. Type of series: physicochemical. The text has this:
Above this humidity, Form IIIS absorbed approximately 1.4%-1.5% water at 95% RH.

A short description of series [6]: water vapor sorption. In kind it is physicochemical. Here is the method:
Water Vapor Sorption. Data were collected with a SGA-100 water vapor sorption balance (VTI Corporation, Hialeah, Fla.). A portion of the selected sample was weighed into a platinum sample pan and placed into the instrument. The sample was cycled from low (5%) relative humidity (RH) to high (95%) RH to low humidity (i.e., sorption and desorption events) at a constant temperature of 25° C., in 5% RH intervals. The sample was held at each interval until the equilibrium condition was met (i.e., 0.0005% for 3 min, with a maximum of 600 min).

A short description of series [7]: resistance to degradation in air. Type of series: physicochemical. The note with it: compared with Form IB.
Series [8] is described as follows: solubility in a mixture of alcohol and water. In kind it is physicochemical. The note with it: compared with Form IB.

For the compound `Oc1ccc2c3c1OC1C(O)CC[C@@]4(O)[C@@H](C2)N(CC2CC2)CC[C@]314` (stereo partly drawn) [6-beta-naltrexol, morphinan-3,6,14-triol,17-(cyclopropylmethyl)-4,5-epoxy], the duration of action entry in series [1] is “longer duration of action than naloxone and naltrexone”. For the same compound, in series [2] (relative to naloxone), the “fold less potent than naloxone in precipitating withdrawal” value is reported as roughly 30 fold. Further, in series [2] (relative to naltrexone), the “fold less potent than naltrexone in precipitating withdrawal” value is given as “approximately 77 fold”. In addition, in series [3], the withdrawal precipitated entry is given as “only minimal withdrawal”.
In the case of `Cl.Oc1ccc2c3c1O[C@H]1[C@H](O)CC[C@@]4(O)[C@@H](C2)N(CC2CC2)CC[C@]314` [Form IVS, 6-beta-naltrexol hydrochloride], the “time the form was stable in slurry” value in series [4] (ethyl alcohol slurry) is given as “at least 15 days”.
In the case of `Cl.Oc1ccc2c3c1O[C@H]1[C@H](O)CC[C@@]4(O)[C@@H](C2)N(CC2CC2)CC[C@]314` [Form IIIS, 6-beta-naltrexol hydrochloride], the “relative stability among crystalline forms” value in series [5] was “most stable of all the crystalline forms of 6-beta-naltrexol hydrochloride”. Also, in series [6] (above 15% RH, 25° C.), the stability to humidity entry is listed as “reasonably stable up to approximately 90% RH”. For the same compound, in series [6] (after sorption/desorption cycle 5%-95%-5% RH), the “solid form at the conclusion of the sorption experiment (pXRD)” value is recorded as “still comprised predominately Form IIIS”. Moreover, in series [6] (at 95% RH, 25° C.), the water absorbed is given as 1.4%-1.5%. In series [6] (desorption, 25° C.), the hysteresis during desorption result is “minimal hysteresis”. Further, in series [6] (humidities below 15% RH, 25° C., of its original 8.9% water content), the water lost entry was “approximately 4.5%”.
For the compound `Oc1ccc2c3c1O[C@H]1[C@H](O)CC[C@@]4(O)[C@@H](C2)N(CC2CC2)CC[C@]314` [Form IIB, 6-beta-naltrexol base], the “resistance to degradation in air” value in series [7] was “more resistant to degradation in air than Form IB”. In series [8], the solubility result was “greater solubility in a mixture of alcohol and water than Form IB”.
In the case of `Cl.Oc1ccc2c3c1O[C@H]1[C@H](O)CC[C@@]4(O)[C@@H](C2)N(CC2CC2)CC[C@]314` [Form IIS, 6-beta-naltrexol hydrochloride], in series [4] (isopropyl alcohol slurry), the “time the form was stable in slurry” value is given as “at least 8 days”.
